# Several values for one entry are separate records, joined by “and”; a condition that tells them apart may be missing. Equal entries are not always repeated.
# Key:
# Experiment in all cases: binding to AX14596 beads (HeLa lysate, SILAC MS)
# EphB4 = EphB4 (Homo sapiens, UniProt P54760)
# EGFR = molecular target: T1, EGFR (Homo sapiens, UniProt P00533)
# T1 construct: endogenous in cells; host or cells: HeLa S3
# IGF2BP1 = IGF2BP1 (Homo sapiens, UniProt Q9NZI8)
# GAK = molecular target: T2, GAK (Homo sapiens, UniProt O14976)
# T2 sequence (O14976 1-1311): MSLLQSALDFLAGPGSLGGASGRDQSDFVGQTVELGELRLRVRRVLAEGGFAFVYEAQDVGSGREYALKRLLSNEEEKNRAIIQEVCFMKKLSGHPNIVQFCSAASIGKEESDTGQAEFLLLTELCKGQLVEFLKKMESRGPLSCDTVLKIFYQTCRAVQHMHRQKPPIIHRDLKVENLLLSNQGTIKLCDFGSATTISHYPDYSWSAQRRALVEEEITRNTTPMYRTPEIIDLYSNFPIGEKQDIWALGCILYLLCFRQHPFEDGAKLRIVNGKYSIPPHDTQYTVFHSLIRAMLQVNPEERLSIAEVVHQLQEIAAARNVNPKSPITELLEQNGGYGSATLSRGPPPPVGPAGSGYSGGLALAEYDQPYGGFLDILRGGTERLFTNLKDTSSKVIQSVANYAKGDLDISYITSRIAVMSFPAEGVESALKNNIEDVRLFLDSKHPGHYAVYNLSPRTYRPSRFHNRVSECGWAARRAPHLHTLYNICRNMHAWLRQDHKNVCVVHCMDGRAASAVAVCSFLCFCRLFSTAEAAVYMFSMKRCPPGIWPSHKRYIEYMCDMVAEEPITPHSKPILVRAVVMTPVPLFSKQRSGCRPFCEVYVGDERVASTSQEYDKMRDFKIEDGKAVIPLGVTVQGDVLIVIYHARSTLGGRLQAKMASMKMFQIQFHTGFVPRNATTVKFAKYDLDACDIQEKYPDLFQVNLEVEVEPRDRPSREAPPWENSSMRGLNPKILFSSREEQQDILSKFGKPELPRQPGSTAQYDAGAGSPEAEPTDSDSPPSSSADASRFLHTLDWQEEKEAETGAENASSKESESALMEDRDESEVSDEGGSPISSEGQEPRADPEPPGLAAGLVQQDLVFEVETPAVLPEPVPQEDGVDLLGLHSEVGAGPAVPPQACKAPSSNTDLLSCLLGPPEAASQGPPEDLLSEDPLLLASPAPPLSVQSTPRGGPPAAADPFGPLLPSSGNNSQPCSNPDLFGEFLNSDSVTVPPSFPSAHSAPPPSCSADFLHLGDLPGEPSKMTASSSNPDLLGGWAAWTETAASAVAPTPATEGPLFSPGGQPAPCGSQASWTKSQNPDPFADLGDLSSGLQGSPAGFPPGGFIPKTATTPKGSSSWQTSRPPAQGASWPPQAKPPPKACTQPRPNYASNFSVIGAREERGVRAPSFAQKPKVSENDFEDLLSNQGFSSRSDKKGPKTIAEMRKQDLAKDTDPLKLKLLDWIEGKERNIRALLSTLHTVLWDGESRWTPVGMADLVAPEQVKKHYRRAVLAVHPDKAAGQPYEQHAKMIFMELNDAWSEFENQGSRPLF
# PKD3 (PRKD3) = molecular target: T3, PKD3 (PRKD3) (Homo sapiens, UniProt O94806)
# T3 construct: endogenous in cells; host or cells: HeLa S3
# T3 sequence (O94806 whole entry): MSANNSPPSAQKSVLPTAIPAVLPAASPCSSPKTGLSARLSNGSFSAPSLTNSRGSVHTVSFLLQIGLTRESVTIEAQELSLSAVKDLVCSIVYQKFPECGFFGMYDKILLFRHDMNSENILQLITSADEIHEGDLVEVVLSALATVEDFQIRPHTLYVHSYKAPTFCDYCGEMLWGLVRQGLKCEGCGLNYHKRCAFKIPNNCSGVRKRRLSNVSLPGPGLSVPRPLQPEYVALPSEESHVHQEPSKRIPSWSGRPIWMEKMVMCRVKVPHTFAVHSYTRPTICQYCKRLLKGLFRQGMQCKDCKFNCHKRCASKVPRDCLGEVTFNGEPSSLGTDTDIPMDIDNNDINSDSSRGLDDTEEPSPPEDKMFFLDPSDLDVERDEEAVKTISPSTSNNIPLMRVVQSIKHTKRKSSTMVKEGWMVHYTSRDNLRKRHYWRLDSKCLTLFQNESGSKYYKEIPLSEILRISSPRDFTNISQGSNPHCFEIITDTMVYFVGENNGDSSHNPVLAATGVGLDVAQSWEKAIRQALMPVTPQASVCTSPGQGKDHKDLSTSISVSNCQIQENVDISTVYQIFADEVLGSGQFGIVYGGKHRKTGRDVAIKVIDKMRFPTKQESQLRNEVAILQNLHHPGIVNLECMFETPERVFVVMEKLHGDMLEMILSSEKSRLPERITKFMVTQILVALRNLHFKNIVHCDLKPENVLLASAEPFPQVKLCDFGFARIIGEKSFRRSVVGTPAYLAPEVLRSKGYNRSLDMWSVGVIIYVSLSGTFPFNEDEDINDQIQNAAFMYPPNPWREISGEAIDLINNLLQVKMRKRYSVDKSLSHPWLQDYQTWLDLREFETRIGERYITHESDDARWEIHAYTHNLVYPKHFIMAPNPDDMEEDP
# Chain of IGF2BP1 (Q9NZI8 whole entry): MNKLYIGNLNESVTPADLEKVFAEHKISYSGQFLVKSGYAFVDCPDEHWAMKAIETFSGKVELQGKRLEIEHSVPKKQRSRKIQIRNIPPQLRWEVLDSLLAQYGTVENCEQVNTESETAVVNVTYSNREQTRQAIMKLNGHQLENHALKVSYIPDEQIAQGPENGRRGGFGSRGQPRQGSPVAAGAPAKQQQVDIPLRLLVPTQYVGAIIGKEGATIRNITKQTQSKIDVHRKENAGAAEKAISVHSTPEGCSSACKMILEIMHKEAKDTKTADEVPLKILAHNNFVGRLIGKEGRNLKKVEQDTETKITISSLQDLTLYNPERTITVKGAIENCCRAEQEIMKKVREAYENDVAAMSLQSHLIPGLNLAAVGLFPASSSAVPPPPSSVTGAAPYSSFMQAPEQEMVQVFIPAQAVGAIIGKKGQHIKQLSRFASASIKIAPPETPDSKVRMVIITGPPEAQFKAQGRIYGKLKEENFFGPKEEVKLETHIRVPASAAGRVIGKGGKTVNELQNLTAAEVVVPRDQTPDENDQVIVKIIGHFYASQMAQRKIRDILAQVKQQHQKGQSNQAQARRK
# Chain of EphB4 (P54760 16-987): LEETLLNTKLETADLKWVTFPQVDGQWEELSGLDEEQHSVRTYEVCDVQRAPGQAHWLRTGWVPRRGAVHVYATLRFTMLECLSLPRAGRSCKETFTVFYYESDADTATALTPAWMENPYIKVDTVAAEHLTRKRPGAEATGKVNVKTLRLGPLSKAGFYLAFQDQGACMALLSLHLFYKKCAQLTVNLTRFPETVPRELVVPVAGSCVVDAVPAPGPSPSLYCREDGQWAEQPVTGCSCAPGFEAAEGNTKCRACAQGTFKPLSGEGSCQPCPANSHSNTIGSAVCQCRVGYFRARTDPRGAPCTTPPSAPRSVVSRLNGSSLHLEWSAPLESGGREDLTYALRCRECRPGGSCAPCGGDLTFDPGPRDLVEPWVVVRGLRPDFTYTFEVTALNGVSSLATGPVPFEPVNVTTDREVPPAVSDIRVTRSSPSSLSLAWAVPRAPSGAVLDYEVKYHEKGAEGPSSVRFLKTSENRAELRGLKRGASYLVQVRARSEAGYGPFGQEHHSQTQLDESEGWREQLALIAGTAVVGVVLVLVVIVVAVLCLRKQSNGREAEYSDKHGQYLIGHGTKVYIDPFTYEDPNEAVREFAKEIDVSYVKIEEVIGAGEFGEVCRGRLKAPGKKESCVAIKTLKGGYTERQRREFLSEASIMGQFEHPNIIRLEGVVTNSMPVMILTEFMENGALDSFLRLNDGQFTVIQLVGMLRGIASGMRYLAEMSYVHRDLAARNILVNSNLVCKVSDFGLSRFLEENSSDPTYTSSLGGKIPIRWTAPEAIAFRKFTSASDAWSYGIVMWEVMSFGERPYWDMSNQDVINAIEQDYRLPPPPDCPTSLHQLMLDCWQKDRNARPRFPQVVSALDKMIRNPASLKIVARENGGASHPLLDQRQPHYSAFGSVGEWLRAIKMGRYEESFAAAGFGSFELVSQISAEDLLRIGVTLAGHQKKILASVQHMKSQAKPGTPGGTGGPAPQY
# T1 sequence (P00533 25-1210): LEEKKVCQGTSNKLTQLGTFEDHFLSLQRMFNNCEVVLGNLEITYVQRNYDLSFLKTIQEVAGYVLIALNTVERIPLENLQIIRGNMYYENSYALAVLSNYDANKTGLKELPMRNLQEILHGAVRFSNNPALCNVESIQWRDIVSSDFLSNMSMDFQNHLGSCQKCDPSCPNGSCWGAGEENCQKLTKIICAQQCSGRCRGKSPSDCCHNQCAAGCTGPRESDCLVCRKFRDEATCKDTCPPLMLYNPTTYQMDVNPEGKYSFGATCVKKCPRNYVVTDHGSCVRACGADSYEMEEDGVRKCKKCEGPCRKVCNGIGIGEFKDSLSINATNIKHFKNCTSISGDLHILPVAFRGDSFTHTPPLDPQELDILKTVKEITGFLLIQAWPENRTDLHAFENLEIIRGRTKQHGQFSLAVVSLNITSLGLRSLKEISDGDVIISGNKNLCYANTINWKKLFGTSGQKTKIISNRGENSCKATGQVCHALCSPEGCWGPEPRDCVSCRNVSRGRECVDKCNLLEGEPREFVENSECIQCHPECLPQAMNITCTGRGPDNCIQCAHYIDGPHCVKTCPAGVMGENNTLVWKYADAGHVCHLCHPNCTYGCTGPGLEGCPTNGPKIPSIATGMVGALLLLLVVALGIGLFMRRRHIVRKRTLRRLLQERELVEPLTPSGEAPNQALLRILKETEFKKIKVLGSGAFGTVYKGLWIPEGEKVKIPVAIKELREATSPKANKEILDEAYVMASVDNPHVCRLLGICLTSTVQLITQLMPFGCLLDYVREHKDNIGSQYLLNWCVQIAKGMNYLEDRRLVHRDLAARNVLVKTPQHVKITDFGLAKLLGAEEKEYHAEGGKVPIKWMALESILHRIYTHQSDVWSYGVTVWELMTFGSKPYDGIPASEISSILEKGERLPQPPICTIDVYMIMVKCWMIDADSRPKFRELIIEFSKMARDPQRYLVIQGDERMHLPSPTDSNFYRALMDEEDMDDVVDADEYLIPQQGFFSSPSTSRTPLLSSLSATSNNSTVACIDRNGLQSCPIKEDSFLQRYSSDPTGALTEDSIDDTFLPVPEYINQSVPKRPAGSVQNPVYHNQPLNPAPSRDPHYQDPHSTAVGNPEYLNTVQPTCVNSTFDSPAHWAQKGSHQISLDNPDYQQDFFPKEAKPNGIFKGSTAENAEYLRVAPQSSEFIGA
structure (smiles),measurement,setting,value
COc1cc2ncnc(Nc3ccc(F)c(Cl)c3)c2cc1OCCCN [AX14596],Ki,EphB4,242 µM
same,r (3 mg/1 mg lysate),EphB4,2.65
same,r (5 h/2.5 h inc. time),EphB4,0.96
same,rAVERAGE (2. inc/1. inc),EphB4,0.71
same,rAVERAGE (control/1. inc),EphB4,0.05
same,% BOUND,EphB4; bound to AX14596 beads,29%
same,Ki,EGFR,44 µM and 44.5 µM
same,r (3 mg/1 mg lysate),EGFR,2.65
same,r (5 h/2.5 h inc. time),EGFR,0.90
same,rAVERAGE (2. inc/1. inc),EGFR,0.31
same,rAVERAGE (control/1. inc),EGFR,0.03
same,% BOUND,EGFR; bound to AX14596 beads,69%
same,Ki,IGF2BP1,367 µM
same,rAVERAGE (2. inc/1. inc),IGF2BP1,0.79
same,rAVERAGE (control/1. inc),IGF2BP1,0.19
same,Ki,GAK,82 µM and 82.1 µM
same,r (3 mg/1 mg lysate),GAK,2.59
same,r (5 h/2.5 h inc. time),GAK,1.05
same,rAVERAGE (2. inc/1. inc),GAK,0.45
same,rAVERAGE (control/1. inc),GAK,0.04
same,% BOUND,GAK; bound to AX14596 beads,55%
same,Ki,PKD3 (PRKD3),1.51 mM
same,r (3 mg/1 mg lysate),PKD3 (PRKD3),2.49
same,r (5 h/2.5 h inc. time),PKD3 (PRKD3),1.05
same,rAVERAGE (2. inc/1. inc),PKD3 (PRKD3),0.94
same,rAVERAGE (control/1. inc),PKD3 (PRKD3),0.08

# From US8959984B2, “Proteome-wide quantification of small molecule binding to cellular target proteins” (priority 2007, dated 2015)
